Assay results: patent US20140205631A1, “Stimulation of vaccination by angiotensin peptides” (University of Southern California, priority 2013, published 2014)

Experiments:
FIV-p24 antigen [1] = assay: Serum IgG antibody titers (ELISA) after vaccination of cats; format: in vivo, feline immunodeficiency virus (FIV); settings: for Serum IgG anti-FIVp24 antigen Titers: lowest dilution 1:20
Protocol: (§1) Animals: Eleven (11) female outbred cats>24 weeks old that were free of FIV, feline leukemia virus (FeLV) and feline infectious peritonitis virus were employed. The animals were restrained for the application of test articles to mucous membranes and collection of blood and mucosal secretions. Sedation, if necessary, was induced by subcutaneous administration of ketamine hydrochloride (22 mg/kg) and acepromazine maleate (0.1 mg/kg). Euthanasia was accomplished with a lethal overdose of barbiturates. All activities were approved by the Institutional Animal Care and Use Committee and supervised by veterinary staff.
(§2) Vaccine Preparation: Fel-O-Vax FIV (Fort Dodge Animal Health, Fort Dodge, Iowa) and A(1-7) was combined in a constant volume of 2% hydroxyethyl cellulose (2% HEC). The range of concentrations of A(1-7) ranged from 0 to 10 mg/mL with a constant 0.33 mL of Fel-O-Vax FIV suspended in each mL of the gel applied for vaccination purposes. Two control animals received intramuscular Fel-O-Vax FIV at baseline, week 3 and week 5. One control animal had mucosal vaccination with Fel-O-Vax alone suspended in the 2% HEC without A(1-7) and one control animal received intramuscular Fel-O-Vax FIV with 0.3 mg/kg of A(1-7) at baseline, week 3 and week 5.
(§3) Delivery of angiotensin(1-7) and FIV vaccine to mucosal surfaces: 2% HEC, a viscous gel, was used as the vehicle for the topical delivery of angiotensin(1-7) and FIV vaccine. The topical vaccine was applied to the mucosal surface weekly for 6 consecutive weeks. 1.0 mL was applied to the muzzle for oral mucosal vaccination and 1.0 mL and 0.2 mL was instilled in the rectal and vaginal vaults, respectively for mucosal vaccination at these sites.
(§4) The local immune response in mucosal secretions was evaluated against the homologous FIV-p24 antigen (Cell Biolabs, Inc, San Diego, Calif.) or the heterologous HIV-gp120 antigen (ImmunoDiagnostics, Inc, Woburn, Mass.). Plates were prepared with 50 ng/mL FIV-p24 antigen or with 500 ng/mL HIV-gp120 antigen (Bachem Americans, Inc, Torrance, Calif.) incubated over night at 4° C., washed and the target sample added and incubated overnight again at 4° C. The plates were washed and the indicator goat anti-feline IgG (Accurate Chemical & Scientific Corp., Westbury, N.Y., working titer 1:10,000) or goat anti-feline IgA (Accurate Chemical & Scientific Corp., Westbury, N.Y., working titer 1:1,000) added and incubated for 24 hours at 4° C. Following a final wash, substrate solution was added. The stop solution was added after 15 minutes for the IgG reaction and after 30 minutes for the IgA reaction. Plates were read at 450 nm.

FIV-p24 antigen [2] = assay: Oral secretion SIgA antibody titers (ELISA) after vaccination of cats; format: in vivo, feline immunodeficiency virus (FIV)
Protocol: as §1, §2, §3
(§5) Measurement of Local Immune Response: The Weck-Cel Surgical Spear (Windsor Biomedical, Newton, N.H.) was used to obtain secretions. Once inserted, the sponge is allowed to remain in place for 5 minutes. The secretions were extracted by centrifugation with 300 μL of a buffer solution. The buffer solution is prepared by mixing 50 μL of 100× protease inhibitor cocktail and 250 μL of 10% Igepal (Sigma, St Louis, Mo., U.S.A.) with 4.7 ml of phosphate-buffered saline (PBS) containing 0.25% bovine serum albumin (BSA, Fraction V; Sigma). The 100× protease inhibitor cocktail contains 100 μg/mL aprotinin, 500 μg/mL leupeptin, 100 μg/mL bestatin (all Sigma), and 50 μg/mL 4-(2-Aminoethyl)-benzenesulfonyl fluoride hydrochloride (Roche Applied Sciences, U.S.A.) in phosphate buffered saline.
as §4

FIV-p24 = assay: Oral secretion IgG antibody titers (ELISA) after vaccination of cats; format: in vivo, feline immunodeficiency virus (FIV); settings: Week 8, lowest dilution 1:4, elution factor 4-fold
Protocol: as §1, §2, §3, §5
(§6) The local immune response in mucosal secretions was evaluated against the homologous FIV-p24 antigen (Cell Biolabs, Inc, San Diego, Calif.) or the heterologous HIV-gp120 antigen (ImmunoDiagnostics, Inc, Woburn, Mass.). […] Plates were read at 450 nm.

[3] = system: mucosal SIgA antibody production; assay: Local (mucosal) secretory IgA immune response after vaccination of cats, general statements; format: in vivo
Protocol: as §1
as §2, with “One control animal had mucosal vaccination with Fel-O-Vax alone suspended in the 2% HEC without A(1-7) and one control animal received intramuscular Fel-O-Vax FIV with 0.3 mg/kg of A(1-7) at baseline, week 3 and week 5.” left out
as §6

HIV-gp120 antigen = assay: Vaginal secretion SIgA antibody titers (ELISA) after vaccination of cats; format: in vivo, human immunodeficiency virus (HIV); settings: for SIgA Anti-HIV gp120: vaginal, Week 8, lowest dilution 1:4, elution factor 300-fold
Protocol: as §1, §2, §3
Measurement of Local Immune Response: The Weck-Cel Surgical Spear (Windsor Biomedical, Newton, N.H.) was used to obtain secretions. […]
as §6

[4] = topical Fel-O-Vax FIV + 0.1 A(1-7) in 2% HEC

Asp-Arg-Val-Tyr-Ile-His-Pro (DRVYIHP) [A(1-7)]
Serum IgG anti-FIVp24 antigen Titers (FIV-p24 antigen [1]; topical Fel-O-Vax FIV + 0.1 A(1-7) in 2% HEC, Week 4): Negative | Serum IgG anti-FIVp24 antigen Titers (FIV-p24 antigen [1]; topical Fel-O-Vax FIV + 0.1 A(1-7) in 2% HEC, Week 8): Negative | Serum IgG anti-FIVp24 antigen Titers (FIV-p24 antigen [1]; topical Fel-O-Vax FIV + 0.2 A(1-7) in 2% HEC, Week 4): Negative | Serum IgG anti-FIVp24 antigen Titers (FIV-p24 antigen [1]; topical Fel-O-Vax FIV + 0.4 A(1-7) in 2% HEC, Week 4): Negative | Serum IgG anti-FIVp24 antigen Titers (FIV-p24 antigen [1]; topical Fel-O-Vax FIV + 0.4 A(1-7) in 2% HEC, Week 8): Negative | Serum IgG anti-FIVp24 antigen Titers (FIV-p24 antigen [1]; topical Fel-O-Vax FIV + 5.0 A(1-7) in 2% HEC, Week 2): Negative | Serum IgG anti-FIVp24 antigen Titers (FIV-p24 antigen [1]; topical Fel-O-Vax FIV + 5.0 A(1-7) in 2% HEC, Week 4): Negative | Serum IgG anti-FIVp24 antigen Titers (FIV-p24 antigen [1]; topical Fel-O-Vax FIV + 5.0 A(1-7) in 2% HEC, Week 6): Negative | Serum IgG anti-FIVp24 antigen Titers (FIV-p24 antigen [1]; topical Fel-O-Vax FIV + 5.0 A(1-7) in 2% HEC, Week 8): Negative | Serum IgG anti-FIVp24 antigen Titers (FIV-p24 antigen [1]; topical Fel-O-Vax FIV + 7.5 A(1-7) in 2% HEC, Week 2): Negative | Serum IgG anti-FIVp24 antigen Titers (FIV-p24 antigen [1]; topical Fel-O-Vax FIV + 7.5 A(1-7) in 2% HEC, Week 4): Negative | Serum IgG anti-FIVp24 antigen Titers (FIV-p24 antigen [1]; topical Fel-O-Vax FIV + 7.5 A(1-7) in 2% HEC, Week 6): Negative | Serum IgG anti-FIVp24 antigen Titers (FIV-p24 antigen [1]; topical Fel-O-Vax FIV + 7.5 A(1-7) in 2% HEC, Week 8): Negative | Serum IgG anti-FIVp24 antigen Titers (FIV-p24 antigen [1]; topical Fel-O-Vax FIV + 10.0 A(1-7) in 2% HEC, Week 2): Negative | Serum IgG anti-FIVp24 antigen Titers (FIV-p24 antigen [1]; topical Fel-O-Vax FIV + 10.0 A(1-7) in 2% HEC, Week 4): Negative | Serum IgG anti-FIVp24 antigen Titers (FIV-p24 antigen [1]; topical Fel-O-Vax FIV + 10.0 A(1-7) in 2% HEC, Week 6): Negative | Serum IgG anti-FIVp24 antigen Titers (FIV-p24 antigen [1]; topical Fel-O-Vax FIV + 10.0 A(1-7) in 2% HEC, Week 8): Negative | dose response effect on serum IgG antibody titers to FIVp24 antigen (FIV-p24 antigen [1]; topical vaccination, increasing dose levels of A(1-7)): no discernible dose response effect | SIgA Anti-FIV-p24 (FIV-p24 antigen [2]; IM Fel-O-Vax FIV + 0.3 mg/kg A(1-7), Week 2, lowest dilution Undilute): Negative | SIgA Anti-FIV-p24 (FIV-p24 antigen [2]; IM Fel-O-Vax FIV + 0.3 mg/kg A(1-7), Week 4, lowest dilution Undilute): Undilute | SIgA Anti-FIV-p24 (FIV-p24 antigen [2]; IM Fel-O-Vax FIV + 0.3 mg/kg A(1-7), Week 8, lowest dilution Undilute): Undilute | SIgA Anti-FIV-p24 (FIV-p24 antigen [2]; topical Fel-O-Vax FIV + 0.1 A(1-7) in 2% HEC, Week 2, lowest dilution Undilute): Negative | SIgA Anti-FIV-p24 (FIV-p24 antigen [2]; topical Fel-O-Vax FIV + 0.1 A(1-7) in 2% HEC, Week 4, lowest dilution Undilute): Negative | SIgA Anti-FIV-p24 (FIV-p24 antigen [2]; topical Fel-O-Vax FIV + 0.1 A(1-7) in 2% HEC, Week 6, lowest dilution Undilute): Undilute | SIgA Anti-FIV-p24 (FIV-p24 antigen [2]; topical Fel-O-Vax FIV + 0.1 A(1-7) in 2% HEC, Week 8, lowest dilution Undilute): Negative | SIgA Anti-FIV-p24 (FIV-p24 antigen [2]; topical Fel-O-Vax FIV + 0.2 A(1-7) in 2% HEC, Week 2, lowest dilution Undilute): Negative | SIgA Anti-FIV-p24 (FIV-p24 antigen [2]; topical Fel-O-Vax FIV + 0.2 A(1-7) in 2% HEC, Week 4, lowest dilution Undilute): Negative | SIgA Anti-FIV-p24 (FIV-p24 antigen [2]; topical Fel-O-Vax FIV + 0.2 A(1-7) in 2% HEC, Week 6, lowest dilution Undilute): Negative | SIgA Anti-FIV-p24 (FIV-p24 antigen [2]; topical Fel-O-Vax FIV + 0.2 A(1-7) in 2% HEC, Week 8, lowest dilution Undilute): Negative | SIgA Anti-FIV-p24 (FIV-p24 antigen [2]; topical Fel-O-Vax FIV + 0.3 A(1-7) in 2% HEC, Week 2, lowest dilution Undilute): Negative | SIgA Anti-FIV-p24 (FIV-p24 antigen [2]; topical Fel-O-Vax FIV + 0.3 A(1-7) in 2% HEC, Week 4, lowest dilution Undilute): Negative | SIgA Anti-FIV-p24 (FIV-p24 antigen [2]; topical Fel-O-Vax FIV + 0.3 A(1-7) in 2% HEC, Week 6, lowest dilution Undilute): Negative | SIgA Anti-FIV-p24 (FIV-p24 antigen [2]; topical Fel-O-Vax FIV + 0.3 A(1-7) in 2% HEC, Week 8, lowest dilution Undilute): Negative | SIgA Anti-FIV-p24 (FIV-p24 antigen [2]; topical Fel-O-Vax FIV + 0.4 A(1-7) in 2% HEC, Week 4, lowest dilution Undilute): Undilute | SIgA Anti-FIV-p24 (FIV-p24 antigen [2]; topical Fel-O-Vax FIV + 0.4 A(1-7) in 2% HEC, Week 6, lowest dilution Undilute): Negative | SIgA Anti-FIV-p24 (FIV-p24 antigen [2]; topical Fel-O-Vax FIV + 5.0 A(1-7) in 2% HEC, Week 2, lowest dilution Undilute): Undilute | SIgA Anti-FIV-p24 (FIV-p24 antigen [2]; topical Fel-O-Vax FIV + 7.5 A(1-7) in 2% HEC, Week 4, lowest dilution Undilute): Negative | SIgA Anti-FIV-p24 (FIV-p24 antigen [2]; topical Fel-O-Vax FIV + 10.0 A(1-7) in 2% HEC, Week 2, lowest dilution Undilute): Negative | SIgA Anti-FIV-p24 (FIV-p24 antigen [2]; topical Fel-O-Vax FIV + 10.0 A(1-7) in 2% HEC, Week 4, lowest dilution Undilute): Negative | SIgA Anti-FIV-p24 (FIV-p24 antigen [2]; topical Fel-O-Vax FIV + 10.0 A(1-7) in 2% HEC, Week 6, lowest dilution Undilute): Negative | SIgA Anti-FIV-p24 (FIV-p24 antigen [2]; topical Fel-O-Vax FIV + 10.0 A(1-7) in 2% HEC, Week 8, lowest dilution Undilute): Negative | IgG anti-FIV-p24 (FIV-p24; [4]): Negative | IgG anti-FIV-p24 (FIV-p24; topical Fel-O-Vax FIV + 0.2 A(1-7) in 2% HEC): Negative | IgG anti-FIV-p24 (FIV-p24; topical Fel-O-Vax FIV + 0.3 A(1-7) in 2% HEC): Negative | IgG anti-FIV-p24 (FIV-p24; topical Fel-O-Vax FIV + 10.0 A(1-7) in 2% HEC): Negative | local secretory IgA immune responses ([3]; angiotensin (1-7) co-administered with killed FIV (Fel-O-Vax FIV) vaccine): dramatic increase | induction of SIgA antibody production at the mucosal surface ([3]; following A(1-7)+FIV immunization, two month period of observation): sustained | SIgA-anti-HIV-gp120 antibodies in vaginal secretions (HIV-gp120 antigen; Topical application of FIV antigen with A(1-7)): substantial | SIgA Anti-HIV gp120 (HIV-gp120 antigen; [4]): Negative | SIgA Anti-HIV gp120 (HIV-gp120 antigen; topical Fel-O-Vax FIV + 5.0 A(1-7) in 2% HEC): Negative
